In patent US9341616B2, “Sweet taste receptor chimeric proteins and use thereof” (AJINOMOTO CO., INC., priority 2014, dated 2016):
Read-outs that look alike come from different tables or passages of the source. Residues, ends and D or L forms follow the SMILES beside them.

Key:
[1] = biological target: h-mT1R2-481/mT1R3 (UniProt Q8TE23+Q925D8, A537S/A564V/A568V/A570T/A649T/A658V/A782V/E530V/E534N/E542M/E548N/F525Y/F665L/G696N/G701T/H484Y/H528R/I481V/I486P/I490V/I510L/I518V/I595M/I643V/I645L/I692L/I695G/K504M/K626T/K714N/L521P/L571I/L578I/L610P/L631F/L636F/L639V/L688V/L702I/L734M/L800F/M492I/M616G/M682V/M690V/M748V/N540G/N541S/N721H/P638T/P824S/Q536L/Q546K/Q555R/Q676H/R498S/R667S/S501P/S547N/S550A/S628F/S663R/S670G/S681F/S703N/S727G/S784D/S804G/T529S/T549I/T609V/T629S/T642S/T705I/T706G/T716I/V508I/V512P/V557A/V585L/V613L/V617M/V673M/V687A/V691A/V694A/V718L/V741L/V774I/V791M/Y533F/Y615F/Y671F/Y769S/Y783H); settings: genes h-mT481/mT3 (h-mT1R2-481, mT1R3), HEK293E cells
Method: (§1) The HEK293E cells maintained by using the DMEM/Ham's F-12 medium (Nakarai Tesque) containing 10% fetal bovine serum ([…]) and 1% Pen Strep (GIBCO) were washed with D-PBS(−) (Nakarai Tesque), and collected from the flask by using 0.25% Trypsin EDTA (GIBCO). The cells were centrifuged (1,200 rpm, 3 minutes), and after the supernatant was removed, suspended in 5% FBS DMEM/Ham's F-12 at a density of 0.75×10^7 cell/ml. This suspension (10 ml) was put into a […] (IWAKI), and culture was performed overnight (37° C., 5% CO2). On the next day, the medium was exchanged with Opti-MEM (30 ml, Invitrogen, Life Technologies), a sweet taste receptor gene mixture (Gα15-trans48LD gene, various kinds of T1R2 chimeric genes, and various kinds of T1R3 chimeric genes, 63.8 μg in total) prepared by using Opti-MEM and Lipofectamin 2000 (Invitrogen, Life Technologies) was slowly added to the cell suspension, and incubation was performed (37° C., 5% CO2) for 6 hours to attain gene transfer.
(§2) After the gene transfer, the cells were washed with D-PBS(−), then removed from the flask by using 0.25% Trypsin EDTA (GIBCO), and collected. After the cell number was counted, the cells were suspended in the 5% FBS DMEM medium (2.78 mM glucose, GIBCO) at a density of 0.5×10^6 cell/ml. This cell suspension was put into wells of D-Lysine coat 96-well plate (BD bioscience) in such a volume that the cell count is 7.0×10^4 cells/well, and the cells were cultured overnight.
(§3) After the culture, all the medium of the 96 wells were discarded. 200 μl of the staining solution for measurement of intracellular calcium ion′ Calcium Assay Kit Express (Molecular Device), diluted 80 times with an assay buffer (20 mM HEPES, 146 mM NaCl, 1 mM MgSO4, 1.39 mM glucose, 1 mM CaC12, 2.5 mM Probenecid, 0.05% bovine serum albumin) was added to each well, and the plate was left standing at 37° C. for 30 minutes and at room temperature for 45 minutes to perform staining. After the staining, 50 μl of a solution of stimulant (sweet taste substance) prepared with the assay buffer was added to each well, and the fluorescence value was measured for 120 seconds after the stimulation by using FDSSμEELL (Hamamatsu Photonics). By measuring the fluorescence value (Ex. 480 nm, Em. 540 nm) before and after the stimulation, the change of the intracellular free calcium ion concentration caused by addition of the stimulant via a sweet taste receptor was quantitatively investigated. The measurement and analysis of the fluorescence value was performed by using the software attached to FDSSμEELL (FDSS7000EX), and ΔF/F value was calculated in accordance with the following equation, and used for the evaluation. ΔF/F=(Maximum fluorescence value after stimulation−Minimum fluorescence value after stimulation)/(Fluorescence value before stimulation)
(§4) Furthermore, by using the ΔF/F values obtained when each sweet taste substance was added, the S/N ratio was calculated. Specifically, the S/N value was calculated by using the minimum value of ΔF/F obtained when each substance was added at various concentrations as noise (N) value, and the similarly obtained maximum value of ΔF/F as the signal (S) value, and used as an index for sensitivity of the measurement of the activity of each receptor. That is, a higher S/N value means a higher sensitivity for detection of an interaction of a sweet taste receptor and a test substance, which makes it easier to detect stimulation with a sweet taste substance or sweet taste-regulating substance of a lower concentration.
(§5) The sweet taste substances used as the stimulating substance are acesulfame potassium (Tokyo Kasei Kogyo), sodium saccharin (WAKO), sucralose (SIGMA), sucrose (WAKO), and neotame (SIGMA), as well as aspartame, advantame, and SC-45647 ([3-[(S)-1-phenylethyl]-2-(4-cyanophenyl)guanidino]acetic acid, which were all synthesized in-house.

[2] = biological target: h-mT1R2-471/mT1R3 (UniProt Q8TE23+Q925D8, A537S/A564V/A568V/A570T/A649T/A658V/A782V/D480N/E530V/E534N/E542M/E548N/F525Y/F665L/G696N/G701T/H484Y/H528R/I481V/I486P/I490V/I510L/I518V/I595M/I643V/I645L/I692L/I695G/K476T/K504M/K626T/K714N/L471T/L521P/L571I/L578I/L610P/L631F/L636F/L639V/L688V/L702I/L734M/L800F/M492I/M616G/M682V/M690V/M748V/N477Y/N540G/N541S/N721H/P638T/P824S/Q472E/Q474R/Q479S/Q536L/Q546K/Q555R/Q676H/R473T/R498S/R667S/S501P/S547N/S550A/S628F/S663R/S670G/S681F/S703N/S727G/S784D/S804G/T529S/T549I/T609V/T629S/T642S/T705I/T706G/T716I/V508I/V512P/V557A/V585L/V613L/V617M/V673M/V687A/V691A/V694A/V718L/V741L/V774I/V791M/Y533F/Y615F/Y671F/Y769S/Y783H); settings: Table 4; genes h-mT471/mT3 (h-mT1R2-471, mT1R3); HEK293E cells
Method: as §1, §2, §3, §4, §5

Chain of h-mT1R2-481/mT1R3 (Q8TE23 with tags, fused parts or gaps with the stated changes limits assumed): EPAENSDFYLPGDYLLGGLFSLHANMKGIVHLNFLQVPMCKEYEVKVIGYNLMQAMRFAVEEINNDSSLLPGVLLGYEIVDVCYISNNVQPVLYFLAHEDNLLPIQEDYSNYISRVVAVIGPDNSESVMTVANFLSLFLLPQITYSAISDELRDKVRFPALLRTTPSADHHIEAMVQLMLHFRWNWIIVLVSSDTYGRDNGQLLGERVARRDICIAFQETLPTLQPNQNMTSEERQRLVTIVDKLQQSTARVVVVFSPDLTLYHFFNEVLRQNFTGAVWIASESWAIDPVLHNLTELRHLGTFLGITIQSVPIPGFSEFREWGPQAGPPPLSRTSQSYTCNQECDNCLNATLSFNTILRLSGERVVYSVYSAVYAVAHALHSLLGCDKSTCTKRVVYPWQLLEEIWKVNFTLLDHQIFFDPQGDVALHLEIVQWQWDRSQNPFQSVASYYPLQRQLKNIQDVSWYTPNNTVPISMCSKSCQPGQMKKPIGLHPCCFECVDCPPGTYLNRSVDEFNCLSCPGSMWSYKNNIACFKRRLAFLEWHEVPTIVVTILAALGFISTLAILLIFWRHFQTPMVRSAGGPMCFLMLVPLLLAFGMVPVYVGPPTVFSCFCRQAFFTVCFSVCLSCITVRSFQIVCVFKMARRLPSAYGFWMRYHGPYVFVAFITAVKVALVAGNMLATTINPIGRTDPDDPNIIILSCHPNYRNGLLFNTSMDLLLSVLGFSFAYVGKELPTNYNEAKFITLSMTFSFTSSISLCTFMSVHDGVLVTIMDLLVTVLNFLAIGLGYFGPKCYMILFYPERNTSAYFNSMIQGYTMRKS
Chain of h-mT1R2-481/mT1R3 (Q925D8 21-858, stated change not applied): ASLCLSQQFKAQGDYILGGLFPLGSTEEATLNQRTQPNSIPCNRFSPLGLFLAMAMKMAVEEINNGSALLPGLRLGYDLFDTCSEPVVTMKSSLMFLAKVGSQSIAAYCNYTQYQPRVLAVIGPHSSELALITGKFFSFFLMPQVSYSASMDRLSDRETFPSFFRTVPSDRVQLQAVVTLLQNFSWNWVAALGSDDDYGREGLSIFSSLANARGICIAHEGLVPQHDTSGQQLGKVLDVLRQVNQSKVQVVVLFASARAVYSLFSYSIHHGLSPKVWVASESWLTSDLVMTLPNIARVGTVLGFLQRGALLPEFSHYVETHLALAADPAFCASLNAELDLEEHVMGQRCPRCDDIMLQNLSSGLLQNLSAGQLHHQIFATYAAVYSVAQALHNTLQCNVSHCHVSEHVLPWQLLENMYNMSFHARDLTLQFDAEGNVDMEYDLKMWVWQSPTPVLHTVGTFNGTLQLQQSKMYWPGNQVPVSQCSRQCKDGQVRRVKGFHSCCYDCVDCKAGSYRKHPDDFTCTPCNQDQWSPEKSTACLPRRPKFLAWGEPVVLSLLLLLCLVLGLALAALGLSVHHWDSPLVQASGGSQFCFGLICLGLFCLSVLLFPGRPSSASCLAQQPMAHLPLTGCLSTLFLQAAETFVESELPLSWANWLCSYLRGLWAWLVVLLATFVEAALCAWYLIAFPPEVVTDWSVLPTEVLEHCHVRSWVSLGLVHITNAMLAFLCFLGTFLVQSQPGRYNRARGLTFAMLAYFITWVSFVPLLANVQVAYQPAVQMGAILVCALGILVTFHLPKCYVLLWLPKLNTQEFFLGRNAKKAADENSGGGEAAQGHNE
Chain of h-mT1R2-471/mT1R3 (Q8TE23 with tags, fused parts or gaps with the stated changes limits assumed): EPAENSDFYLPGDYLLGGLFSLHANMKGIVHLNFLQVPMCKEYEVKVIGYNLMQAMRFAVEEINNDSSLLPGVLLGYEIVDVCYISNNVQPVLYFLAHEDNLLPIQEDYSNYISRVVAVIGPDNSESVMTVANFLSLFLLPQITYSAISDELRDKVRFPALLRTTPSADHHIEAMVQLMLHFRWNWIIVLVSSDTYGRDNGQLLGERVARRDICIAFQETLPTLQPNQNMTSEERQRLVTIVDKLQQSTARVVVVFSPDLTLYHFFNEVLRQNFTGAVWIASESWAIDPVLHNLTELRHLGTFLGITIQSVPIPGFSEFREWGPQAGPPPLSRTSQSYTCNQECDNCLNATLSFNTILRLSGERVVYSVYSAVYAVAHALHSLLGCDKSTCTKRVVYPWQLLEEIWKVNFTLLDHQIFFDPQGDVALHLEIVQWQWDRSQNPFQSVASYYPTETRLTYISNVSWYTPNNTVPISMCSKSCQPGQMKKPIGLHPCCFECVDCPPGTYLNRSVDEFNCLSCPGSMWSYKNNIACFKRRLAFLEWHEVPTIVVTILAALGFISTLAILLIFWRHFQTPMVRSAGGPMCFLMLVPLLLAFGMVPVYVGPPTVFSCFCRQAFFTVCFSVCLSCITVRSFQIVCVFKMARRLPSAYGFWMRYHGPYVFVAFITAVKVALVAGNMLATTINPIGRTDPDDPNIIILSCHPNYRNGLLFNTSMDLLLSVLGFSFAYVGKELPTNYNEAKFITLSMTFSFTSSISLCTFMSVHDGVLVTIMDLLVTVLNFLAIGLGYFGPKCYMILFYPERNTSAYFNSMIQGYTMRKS
Chain of h-mT1R2-471/mT1R3 (Q925D8 21-858, stated change not applied): as the sequence (Q925D8 21-858, stated change not applied) above

| Compound | S/N ([1]; Table 3) | S/N ([1]; Table 4) | S/N [2] |
| --- | --- | --- | --- |
| OC[C@H]1O[C@@](CO)(O[C@H]2O[C@H](CO)[C@@H](O)[C@H](O)[C@H]2O)[C@@H](O)[C@@H]1O [Sucrose, sucrose] | 2.8 | 3.9 | 3.5 |
| O=C1NS(=O)(=O)c2ccccc21.[Na] [Saccharin Na, sodium saccharin] | 3.9 | 4.4 | 3.6 |
| COC(=O)[C@H](Cc1ccccc1)NC(=O)[C@@H](N)CC(=O)O [Aspartame, aspartame] (HELM PEPTIDE1{D.F.[CO[*:1]]}$$$$V2.0) | 4.3 | 5.8 | 4.6 |
| COC(=O)[C@H](Cc1ccccc1)NC(=O)[C@H](CC(=O)O)NCCCc1ccc(OC)c(O)c1 [Advantame, advantame] | 6.6 | 7.1 | 5.5 |
| CC1=CC(=O)NS(=O)(=O)O1 [Acesulfame K, acesulfame potassium] | 3.0 | 3.7 | 3.1 |
| COC(=O)[C@H](Cc1ccccc1)NC(=O)[C@H](CC(=O)O)NCCC(C)(C)C [Neotame, neotame] | 5.4 | 5.4 | 4.4 |
| C[C@H](NC(=Nc1ccc(C#N)cc1)NCC(=O)O)c1ccccc1 [SC-45647, [3-[(S)-1-phenylethyl]-2-(4-cyanophenyl)guanidino]acetic acid] | 5.1 | 5.2 | 4.2 |
| OC[C@H]1O[C@H](O[C@]2(CCl)O[C@H](CCl)[C@@H](O)[C@@H]2O)[C@H](O)[C@@H](O)[C@H]1Cl [Sucralose, sucralose] | 5.0 | 5.7 | 4.6 |
